Results: ChEMBL document CHEMBL4325912, “Discovery of 2-(1H-imidazo-2-yl)piperazines as a new class of potent and non-cytotoxic inhibitors of Trypanosoma brucei growth in vitro” (Bioorg Med Chem Lett, 2018)
The source made the active and inactive calls. No cut-off for these calls is given here.

What was measured:
[1] = Cytotoxicity against human HeLa cells assessed as reduction in cell viability after 72 hrs by celltiter glo assay; assay type: cell-based
Trypanosoma brucei [2] = assay: Antitrypanosomal activity against Trypanosoma brucei Lister 427 bloodstream forms in presence of 10% FBS after 24 hrs by celltiter glo assay; assay type: functional, organism-based; settings: Lister 427, 24 h
Trypanosoma brucei [3] = assay: Inhibition of Trypanosoma brucei trypanothione reductase
Trypanosoma brucei [4] = assay: Inhibition of Trypanosoma brucei adenosine kinase
Trypanosoma brucei [5] = assay: Inhibition of Trypanosoma brucei Aurora 1 kinase
Trypanosoma brucei [6] = assay: Inhibition of Trypanosoma brucei GSK3
[7] = Half life in human hepatocytes; assay type: ADME, cell-based, Hepatocyte
[8] = Selectivity index, ratio of EC50 for Plasmodium falciparum 3D7 infected in human erythrocytes to EC50 for antitrypanosomal activity against Trypanosoma brucei Lister 427 bloodstream forms; assay type: functional
Trypanosoma cruzi = assay: Antiparasitic activity against Trypanosoma cruzi; assay type: functional, organism-based
[9] = Cytotoxicity against HUVEC; assay type: cell-based; settings: human
Plasmodium falciparum = assay: Antimalarial activity against Plasmodium falciparum 3D7 infected in human erythrocytes after 72 hrs by spectrophotometric analysis; assay type: functional, organism-based; settings: 3D7, 72 h
[10] = Half life in mouse hepatocytes; assay type: ADME, cell-based, Hepatocyte
[11] = Selectivity index, ratio of EC50 for Trypanosoma cruzi to EC50 for antitrypanosomal activity against Trypanosoma brucei Lister 427 bloodstream forms; assay type: functional
[12] = target: Histone deacetylase 4 (Homo sapiens) (UniProt P56524); assay: Inhibition of human HDAC4 up to 5 uM
Sequence of Histone deacetylase 4 (Homo sapiens) (P56524 whole entry): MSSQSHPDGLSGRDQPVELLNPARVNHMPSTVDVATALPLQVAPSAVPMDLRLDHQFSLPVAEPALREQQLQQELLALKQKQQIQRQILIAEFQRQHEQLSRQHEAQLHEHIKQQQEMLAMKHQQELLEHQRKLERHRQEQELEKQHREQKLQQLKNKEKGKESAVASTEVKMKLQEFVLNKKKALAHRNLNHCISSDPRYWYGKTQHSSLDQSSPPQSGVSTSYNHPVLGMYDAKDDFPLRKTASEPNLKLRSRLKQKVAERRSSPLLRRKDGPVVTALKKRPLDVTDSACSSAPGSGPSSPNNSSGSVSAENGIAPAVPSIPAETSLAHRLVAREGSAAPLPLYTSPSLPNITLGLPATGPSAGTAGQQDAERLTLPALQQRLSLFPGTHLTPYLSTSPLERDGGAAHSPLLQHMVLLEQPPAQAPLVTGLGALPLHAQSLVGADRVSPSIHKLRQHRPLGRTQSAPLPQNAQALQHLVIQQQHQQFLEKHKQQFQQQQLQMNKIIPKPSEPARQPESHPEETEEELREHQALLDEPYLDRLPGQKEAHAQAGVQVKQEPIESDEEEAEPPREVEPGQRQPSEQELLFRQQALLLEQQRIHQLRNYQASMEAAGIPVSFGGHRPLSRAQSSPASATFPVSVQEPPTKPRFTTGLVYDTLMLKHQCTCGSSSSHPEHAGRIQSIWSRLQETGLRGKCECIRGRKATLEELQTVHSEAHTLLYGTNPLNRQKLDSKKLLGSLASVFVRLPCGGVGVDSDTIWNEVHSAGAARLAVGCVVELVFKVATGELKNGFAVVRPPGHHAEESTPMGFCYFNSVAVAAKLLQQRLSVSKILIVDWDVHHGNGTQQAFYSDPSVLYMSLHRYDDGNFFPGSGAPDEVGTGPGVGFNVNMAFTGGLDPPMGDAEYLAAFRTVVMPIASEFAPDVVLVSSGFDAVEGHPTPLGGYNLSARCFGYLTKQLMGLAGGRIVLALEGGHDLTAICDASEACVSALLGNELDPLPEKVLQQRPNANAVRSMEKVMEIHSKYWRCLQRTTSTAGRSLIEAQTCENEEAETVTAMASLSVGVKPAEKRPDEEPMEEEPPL

[13] = target: T1, Histone deacetylase 8 (Homo sapiens) (UniProt Q9BY41); assay: Inhibition of human HDAC8 up to 5 uM
T1 sequence (whole entry): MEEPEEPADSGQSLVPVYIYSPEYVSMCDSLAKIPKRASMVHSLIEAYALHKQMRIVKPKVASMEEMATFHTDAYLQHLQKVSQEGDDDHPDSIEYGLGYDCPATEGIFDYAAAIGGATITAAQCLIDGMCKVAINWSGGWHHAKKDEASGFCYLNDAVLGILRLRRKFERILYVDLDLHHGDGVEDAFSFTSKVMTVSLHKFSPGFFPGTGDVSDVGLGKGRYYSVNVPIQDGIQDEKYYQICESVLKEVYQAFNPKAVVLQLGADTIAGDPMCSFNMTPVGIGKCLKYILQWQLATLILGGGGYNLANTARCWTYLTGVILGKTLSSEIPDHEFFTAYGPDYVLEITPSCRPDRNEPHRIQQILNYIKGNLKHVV

[14] = target: T2, Protein deacetylase HDAC6 (Homo sapiens) (UniProt Q9UBN7); assay: Inhibition of human HDAC6 up to 5 uM
T2 sequence (whole entry): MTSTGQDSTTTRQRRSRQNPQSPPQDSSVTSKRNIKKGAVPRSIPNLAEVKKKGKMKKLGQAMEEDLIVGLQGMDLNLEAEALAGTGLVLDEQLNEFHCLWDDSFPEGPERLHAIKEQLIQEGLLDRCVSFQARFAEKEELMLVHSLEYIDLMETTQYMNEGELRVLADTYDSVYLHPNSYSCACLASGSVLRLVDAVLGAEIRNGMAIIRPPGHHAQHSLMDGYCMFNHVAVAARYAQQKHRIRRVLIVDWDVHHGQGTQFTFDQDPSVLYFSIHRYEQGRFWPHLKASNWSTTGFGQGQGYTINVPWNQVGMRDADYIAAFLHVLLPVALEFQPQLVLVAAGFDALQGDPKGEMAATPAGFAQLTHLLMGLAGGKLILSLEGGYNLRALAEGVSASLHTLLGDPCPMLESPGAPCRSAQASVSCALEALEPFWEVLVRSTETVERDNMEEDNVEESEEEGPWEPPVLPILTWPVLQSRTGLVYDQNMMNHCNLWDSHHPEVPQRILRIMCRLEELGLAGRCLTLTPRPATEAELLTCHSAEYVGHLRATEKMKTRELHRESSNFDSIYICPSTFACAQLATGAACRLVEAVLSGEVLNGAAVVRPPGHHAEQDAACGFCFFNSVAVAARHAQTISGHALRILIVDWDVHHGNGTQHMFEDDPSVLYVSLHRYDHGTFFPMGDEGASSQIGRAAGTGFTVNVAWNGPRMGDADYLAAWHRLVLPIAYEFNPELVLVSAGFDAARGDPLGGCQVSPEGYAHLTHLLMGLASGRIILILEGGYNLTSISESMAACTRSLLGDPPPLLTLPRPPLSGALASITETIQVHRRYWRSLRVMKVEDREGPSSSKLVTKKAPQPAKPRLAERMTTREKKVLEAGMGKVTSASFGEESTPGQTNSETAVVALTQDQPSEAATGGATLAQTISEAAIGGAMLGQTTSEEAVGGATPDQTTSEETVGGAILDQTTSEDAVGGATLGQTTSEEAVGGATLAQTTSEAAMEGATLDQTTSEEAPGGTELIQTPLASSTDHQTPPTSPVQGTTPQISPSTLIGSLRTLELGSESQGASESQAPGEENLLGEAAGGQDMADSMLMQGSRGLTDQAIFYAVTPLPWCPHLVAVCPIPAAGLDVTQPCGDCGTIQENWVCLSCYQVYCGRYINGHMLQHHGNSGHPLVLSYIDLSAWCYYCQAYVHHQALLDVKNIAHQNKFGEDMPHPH

[15] = target: Histone deacetylase 9 (Homo sapiens) (UniProt Q9UKV0); assay: Inhibition of human HDAC9 up to 5 uM
Sequence of Histone deacetylase 9 (Homo sapiens) (Q9UKV0 whole entry): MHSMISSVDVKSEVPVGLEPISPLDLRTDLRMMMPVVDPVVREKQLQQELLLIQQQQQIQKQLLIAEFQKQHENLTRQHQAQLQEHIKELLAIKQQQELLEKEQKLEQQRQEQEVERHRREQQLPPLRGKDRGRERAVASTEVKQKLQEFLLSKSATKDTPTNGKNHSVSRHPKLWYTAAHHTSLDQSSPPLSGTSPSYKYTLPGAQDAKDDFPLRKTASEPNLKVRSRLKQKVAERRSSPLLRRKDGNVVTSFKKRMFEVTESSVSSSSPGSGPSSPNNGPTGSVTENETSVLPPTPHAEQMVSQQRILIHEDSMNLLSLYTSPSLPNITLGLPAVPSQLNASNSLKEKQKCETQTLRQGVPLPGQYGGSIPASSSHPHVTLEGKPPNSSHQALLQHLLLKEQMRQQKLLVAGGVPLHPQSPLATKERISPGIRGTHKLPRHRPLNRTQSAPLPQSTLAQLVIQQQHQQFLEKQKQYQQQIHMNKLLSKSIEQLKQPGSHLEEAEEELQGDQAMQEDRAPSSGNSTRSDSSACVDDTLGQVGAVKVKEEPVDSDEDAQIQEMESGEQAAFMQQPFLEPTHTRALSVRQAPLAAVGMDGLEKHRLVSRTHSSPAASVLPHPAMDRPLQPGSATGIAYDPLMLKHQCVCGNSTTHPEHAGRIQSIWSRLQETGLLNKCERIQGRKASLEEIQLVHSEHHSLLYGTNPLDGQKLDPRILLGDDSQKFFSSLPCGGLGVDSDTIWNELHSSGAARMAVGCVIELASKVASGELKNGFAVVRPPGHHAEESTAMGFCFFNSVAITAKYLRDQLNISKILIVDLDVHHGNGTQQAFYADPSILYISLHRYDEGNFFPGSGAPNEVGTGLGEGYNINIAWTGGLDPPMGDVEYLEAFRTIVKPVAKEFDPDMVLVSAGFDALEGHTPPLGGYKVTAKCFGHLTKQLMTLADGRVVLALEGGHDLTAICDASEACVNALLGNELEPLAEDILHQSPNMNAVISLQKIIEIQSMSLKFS

Histone deacetylase 3 [16] = target: T3, Histone deacetylase 3 (Homo sapiens, UniProt O15379); assay: Inhibition of human HDAC3 up to 5 uM
T3 sequence (O15379 whole entry): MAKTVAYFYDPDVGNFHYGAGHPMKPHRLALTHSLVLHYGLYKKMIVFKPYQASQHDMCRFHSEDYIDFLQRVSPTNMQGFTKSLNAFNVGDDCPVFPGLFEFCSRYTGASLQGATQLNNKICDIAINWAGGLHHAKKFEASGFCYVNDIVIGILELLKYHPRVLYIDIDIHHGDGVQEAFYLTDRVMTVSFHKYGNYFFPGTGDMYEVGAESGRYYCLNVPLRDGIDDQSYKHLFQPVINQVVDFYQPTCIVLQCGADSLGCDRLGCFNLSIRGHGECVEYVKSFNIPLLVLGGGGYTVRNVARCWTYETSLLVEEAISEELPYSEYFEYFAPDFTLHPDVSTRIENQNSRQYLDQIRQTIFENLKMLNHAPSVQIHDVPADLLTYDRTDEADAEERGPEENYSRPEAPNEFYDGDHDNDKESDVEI

[17] = target: T4, Histone deacetylase 7 (Homo sapiens) (UniProt Q8WUI4); assay: Inhibition of human HDAC7 up to 5 uM
T4 sequence (whole entry): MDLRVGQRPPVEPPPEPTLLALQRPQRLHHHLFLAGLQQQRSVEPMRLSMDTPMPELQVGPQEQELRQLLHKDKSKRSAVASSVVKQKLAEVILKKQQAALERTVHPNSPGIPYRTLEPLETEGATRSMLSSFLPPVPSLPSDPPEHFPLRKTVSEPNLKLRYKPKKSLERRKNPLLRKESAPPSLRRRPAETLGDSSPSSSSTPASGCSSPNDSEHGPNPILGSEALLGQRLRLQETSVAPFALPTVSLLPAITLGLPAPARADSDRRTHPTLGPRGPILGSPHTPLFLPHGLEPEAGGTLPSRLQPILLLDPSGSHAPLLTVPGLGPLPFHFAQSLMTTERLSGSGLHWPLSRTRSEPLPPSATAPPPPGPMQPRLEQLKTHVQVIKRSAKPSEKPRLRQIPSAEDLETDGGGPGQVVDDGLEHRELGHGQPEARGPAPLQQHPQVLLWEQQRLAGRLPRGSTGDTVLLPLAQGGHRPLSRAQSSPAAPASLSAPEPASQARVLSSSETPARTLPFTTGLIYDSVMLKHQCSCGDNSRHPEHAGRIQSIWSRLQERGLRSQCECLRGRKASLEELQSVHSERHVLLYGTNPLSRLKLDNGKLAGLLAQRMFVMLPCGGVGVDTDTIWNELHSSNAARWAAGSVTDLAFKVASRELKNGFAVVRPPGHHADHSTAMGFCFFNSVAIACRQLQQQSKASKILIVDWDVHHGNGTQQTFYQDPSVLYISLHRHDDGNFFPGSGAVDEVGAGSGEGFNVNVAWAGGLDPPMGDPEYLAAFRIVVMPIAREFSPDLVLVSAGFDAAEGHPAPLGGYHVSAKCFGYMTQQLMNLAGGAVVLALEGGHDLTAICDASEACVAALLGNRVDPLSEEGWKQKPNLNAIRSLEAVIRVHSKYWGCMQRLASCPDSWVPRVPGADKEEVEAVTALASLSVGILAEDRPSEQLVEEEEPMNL

Histone deacetylase 1 [18] = target: T5, Histone deacetylase 1 (Homo sapiens, UniProt Q13547); assay: Inhibition of human HDAC1 up to 5 uM preincubated for 10 mins followed by BML-KI104 substrate addition and measured after 1 hr by spectrophotometric analysis
T5 sequence (Q13547 whole entry): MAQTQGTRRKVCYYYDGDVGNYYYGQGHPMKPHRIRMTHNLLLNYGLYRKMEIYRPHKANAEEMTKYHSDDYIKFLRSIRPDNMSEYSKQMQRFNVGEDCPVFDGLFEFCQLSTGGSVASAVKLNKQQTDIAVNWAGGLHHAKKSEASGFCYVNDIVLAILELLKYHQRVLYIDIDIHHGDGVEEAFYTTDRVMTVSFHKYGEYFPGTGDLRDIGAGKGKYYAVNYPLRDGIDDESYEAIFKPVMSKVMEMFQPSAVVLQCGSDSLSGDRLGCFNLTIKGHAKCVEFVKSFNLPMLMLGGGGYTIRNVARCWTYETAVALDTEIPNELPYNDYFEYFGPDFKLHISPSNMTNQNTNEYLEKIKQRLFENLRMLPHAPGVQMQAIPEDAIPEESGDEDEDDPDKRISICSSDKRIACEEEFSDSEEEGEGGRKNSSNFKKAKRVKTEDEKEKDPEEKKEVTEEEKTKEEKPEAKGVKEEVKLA

[19] = target: Histone deacetylase 5 (Homo sapiens) (UniProt Q9UQL6); assay: Inhibition of human HDAC5 up to 5 uM
Sequence of Histone deacetylase 5 (Homo sapiens) (Q9UQL6 whole entry): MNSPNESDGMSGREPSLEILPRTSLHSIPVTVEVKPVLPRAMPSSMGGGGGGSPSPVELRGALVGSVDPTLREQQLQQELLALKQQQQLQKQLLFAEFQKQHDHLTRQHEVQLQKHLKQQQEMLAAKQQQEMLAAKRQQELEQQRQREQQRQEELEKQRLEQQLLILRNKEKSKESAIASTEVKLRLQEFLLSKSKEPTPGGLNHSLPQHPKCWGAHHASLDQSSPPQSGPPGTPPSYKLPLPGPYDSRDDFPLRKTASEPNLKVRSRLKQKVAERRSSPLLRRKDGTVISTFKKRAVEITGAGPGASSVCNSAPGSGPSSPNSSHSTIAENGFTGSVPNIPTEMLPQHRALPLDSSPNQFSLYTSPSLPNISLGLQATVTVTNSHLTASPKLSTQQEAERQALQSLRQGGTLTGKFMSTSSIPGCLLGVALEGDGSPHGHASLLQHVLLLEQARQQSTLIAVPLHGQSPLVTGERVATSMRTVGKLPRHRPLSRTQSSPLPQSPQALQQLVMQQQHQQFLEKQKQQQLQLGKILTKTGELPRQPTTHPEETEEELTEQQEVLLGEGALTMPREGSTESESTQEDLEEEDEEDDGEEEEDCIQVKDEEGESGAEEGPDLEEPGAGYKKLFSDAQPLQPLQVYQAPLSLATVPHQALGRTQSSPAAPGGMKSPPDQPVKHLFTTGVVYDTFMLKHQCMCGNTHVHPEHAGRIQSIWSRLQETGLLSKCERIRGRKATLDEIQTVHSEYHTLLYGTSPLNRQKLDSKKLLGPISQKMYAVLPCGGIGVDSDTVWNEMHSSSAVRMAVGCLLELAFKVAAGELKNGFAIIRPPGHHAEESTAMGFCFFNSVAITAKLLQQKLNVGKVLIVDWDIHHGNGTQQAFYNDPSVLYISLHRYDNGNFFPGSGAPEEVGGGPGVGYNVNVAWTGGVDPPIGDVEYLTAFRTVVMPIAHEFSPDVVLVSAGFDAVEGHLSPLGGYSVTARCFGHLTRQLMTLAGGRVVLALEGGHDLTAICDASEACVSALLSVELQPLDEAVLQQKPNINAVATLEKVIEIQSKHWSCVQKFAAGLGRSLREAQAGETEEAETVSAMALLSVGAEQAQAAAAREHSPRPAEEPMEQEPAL

Histone deacetylase 2 [20] = target: T6, Histone deacetylase 2 (Homo sapiens, UniProt Q92769); assay: Inhibition of human HDAC2 up to 5 uM
T6 sequence (Q92769 whole entry): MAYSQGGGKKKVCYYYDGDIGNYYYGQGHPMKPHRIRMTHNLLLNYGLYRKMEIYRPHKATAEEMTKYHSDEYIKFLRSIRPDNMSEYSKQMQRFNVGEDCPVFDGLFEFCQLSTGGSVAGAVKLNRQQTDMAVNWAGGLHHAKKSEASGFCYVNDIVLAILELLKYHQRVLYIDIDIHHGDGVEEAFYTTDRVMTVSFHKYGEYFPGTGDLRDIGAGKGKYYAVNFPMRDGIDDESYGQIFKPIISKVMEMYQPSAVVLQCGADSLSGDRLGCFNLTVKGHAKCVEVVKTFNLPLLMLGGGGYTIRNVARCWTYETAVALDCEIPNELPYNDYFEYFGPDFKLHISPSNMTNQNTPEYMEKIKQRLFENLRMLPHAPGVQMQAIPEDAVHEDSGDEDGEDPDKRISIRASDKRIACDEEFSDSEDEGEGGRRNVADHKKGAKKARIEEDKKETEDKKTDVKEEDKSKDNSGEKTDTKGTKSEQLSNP

Histone deacetylase 1 [21] = target: T5, Histone deacetylase 1; assay: Inhibition of human HDAC1 preincubated for 10 mins followed by BML-KI104 substrate addition and measured after 1 hr by spectrophotometric analysis
Histone deacetylase 3 [22] = target: T3, Histone deacetylase 3; assay: Inhibition of human HDAC3
Histone deacetylase 2 [23] = target: T6, Histone deacetylase 2; assay: Inhibition of human HDAC2
[24] = target: Class 1 histone deacetylase (Homo sapiens, UniProt Q13547+O15379+Q92769+Q9BY41); assay: Inhibition of HDAC class 1 in human HeLa cells after 4 hrs by spectrophotometric analysis; assay type: cell-based

Compound	CC50 at 72 h [1] [µM]	EC50 (Trypanosoma brucei [2]) [nM]	also measured
COc1ccc2[nH]c(C)c(CC(=O)N3CCN(CCCC(C)O)CC3c3ncc(-c4ccc5ccccc5c4)[nH]3)c2c1 (configuration not stated)	13.1	13	
CCC(=O)CCCN1CCN(C(=O)Cc2c(C)[nH]c3ccc(OC)cc23)C(c2nnc(-c3ccc4ccccc4c3)o2)C1 (configuration not stated)	> 25	304	
CCC(=O)CCCN1CCN(C(=O)Cc2c[nH]c3ccccc23)[C@H](c2ncc(-c3ccc4ccccc4c3)[nH]2)C1	> 25	423	
CCC(=O)CCCN1CCN(Cc2ccccc2)C(c2ncc(-c3ccc4ccccc4c3)[nH]2)C1 (configuration not stated)	14.7	1720	
COc1ccc2[nH]c(C)c(CC(=O)N3CCN(C)CC3c3ncc(-c4ccc5ccccc5c4)[nH]3)c2c1 (configuration not stated)	> 25	38	inhibition (Trypanosoma brucei [3]): inactive; inhibition (Trypanosoma brucei [4]): inactive; inhibition (Trypanosoma brucei [5]): inactive; inhibition (Trypanosoma brucei [6]): inactive
CCC(=O)CCCN1CCN(C(=O)Nc2ccccc2)C(c2ncc(-c3ccc4ccccc4c3)[nH]2)C1 (configuration not stated)	> 25	1430	
COc1ccc2[nH]c(C)c(CC(=O)N3CCN(CC4CCOC4)CC3c3ncc(-c4ccc5ccccc5c4)[nH]3)c2c1 (mixture of isomers)	> 25	5	half-life [7]: 144 min; Ratio EC50 [8]: 1000; EC50 (Trypanosoma cruzi): 8.12 µM; CC50 [9]: 18.7 µM; EC50 (Plasmodium falciparum): 3.62 µM; half-life [10]: 24 min; Ratio EC50 [11]: 1000
CCC(=O)CCCN1CCN(S(=O)(=O)c2ccccc2)C(c2ncc(-c3ccc4ccccc4c3)[nH]2)C1 (configuration not stated)	> 25	4120	
CCC(=O)CCCN1CCN(C(=O)Cc2c(C)[nH]c3ccc(OC)cc23)C(c2ncc(-c3ccc4ccccc4c3)[nH]2)C1 (configuration not stated)	12.3	10	inhibition [12]: inactive; inhibition [13]: inactive; inhibition [14]: inactive; inhibition [15]: inactive; inhibition (Histone deacetylase 3 [16]): inactive; inhibition [17]: inactive; inhibition (Histone deacetylase 1 [18]): inactive; inhibition [19]: inactive; inhibition (Histone deacetylase 2 [20]): inactive
COc1ccc2[nH]c(C)c(CC(=O)N3CCN(CC4CC4)CC3c3ncc(-c4ccc5ccccc5c4)[nH]3)c2c1 (configuration not stated)	> 25	16	
CCC(=O)CCCN1CCN(C(=O)Cc2c[nH]c3ccccc23)C(c2ncc(-c3ccc4ccccc4c3)[nH]2)C1 (configuration not stated)	> 25	489	IC50 (Histone deacetylase 1 [21]): > 25 µM; IC50 (Histone deacetylase 3 [22]): > 25 µM; IC50 (Histone deacetylase 2 [23]): > 25 µM; IC50 [24]: > 25 µM
CCC(=O)CCCN1CCN(C(=O)Cc2c[nH]c3ncccc23)C(c2ncc(-c3ccc4ccccc4c3)[nH]2)C1 (configuration not stated)	> 25	545	
CNC(=O)CCCN1CCN(C(=O)Cc2c(C)[nH]c3ccc(OC)cc23)C(c2ncc(-c3ccc4ccccc4c3)[nH]2)C1 (configuration not stated)	> 5	148	
CCC(=O)CCCN1CCN(C(C)=O)C(c2ncc(-c3ccc4ccccc4c3)[nH]2)C1 (configuration not stated)	> 32	> 25000	
CCCCCCN1CCN(C(=O)Cc2c(C)[nH]c3ccc(OC)cc23)C(c2ncc(-c3ccc4ccccc4c3)[nH]2)C1 (configuration not stated)	> 25	79	
CCC(=O)CCCN1CCN(C(=O)Oc2ccccc2)C(c2ncc(-c3ccc4ccccc4c3)[nH]2)C1 (configuration not stated)	16.6	1220	
CCC(=O)CCC(=O)N1CCN(C(=O)Cc2c(C)[nH]c3ccc(OC)cc23)C(c2ncc(-c3ccc4ccccc4c3)[nH]2)C1 (configuration not stated)	> 25	492	
CCC(=O)CCCN1CCN(C(=O)c2ccccc2)C(c2ncc(-c3ccc4ccccc4c3)[nH]2)C1 (configuration not stated)	> 32	1560	
COC(=O)CCCN1CCN(C(=O)Cc2c(C)[nH]c3ccc(OC)cc23)C(c2ncc(-c3ccc4ccccc4c3)[nH]2)C1 (configuration not stated)	28.8	154	
COc1ccc2[nH]c(C)c(CC(=O)N3CCN(CCCC(=O)O)CC3c3ncc(-c4ccc5ccccc5c4)[nH]3)c2c1 (configuration not stated)	> 50	1100	
CCC(=O)CCCN1CCN(C(=O)Cc2c(C)[nH]c3ccc(OC)cc23)C(c2ncc(-c3ccc4ccccc4c3)o2)C1 (configuration not stated)	20.6	1260	
CCC(=O)CCCN1CCN(C(=O)Cc2ccccc2)C(c2ncc(-c3ccc4ccccc4c3)[nH]2)C1 (configuration not stated)	> 25	1800	
COc1ccc2[nH]c(C)c(CC(=O)N3CCN(CCCC(N)=O)CC3c3ncc(-c4ccc5ccccc5c4)[nH]3)c2c1 (configuration not stated)	> 25	207	
CCC(=O)CCCN1CCN(C(=O)Cc2c[nH]c3ccccc23)[C@@H](c2ncc(-c3ccc4ccccc4c3)[nH]2)C1	> 32	4360	
